Measurements: BigSolDB 2.1

COC(=O)Nc1nc2ccccc2[nH]1
solubility (mole fraction)
Conditions	278.15 K	283.15 K	288.15 K	293.15 K	298.15 K	303.15 K	308.15 K	313.15 K	318.15 K
in DMF	0.000786	0.000861	0.000931	0.00101	0.0011	0.00119	0.00128	0.00138	0.00148
in ethanol	8.29e-06	1.14e-05	1.66e-05	2.28e-05	3.16e-05	4.28e-05	5.74e-05	7.63e-05	9.98e-05
in methanol	3.23e-05	4.07e-05	5.29e-05	6.59e-05	7.95e-05	9.95e-05	0.000121	0.000147	0.000176
in n-propanol	3.28e-06	4.97e-06	8.18e-06	1.24e-05	1.85e-05	2.73e-05	4.04e-05	5.82e-05	8.34e-05
in water	3.3e-07	4e-07	4.91e-07	6e-07	7.35e-07	8.59e-07	1.02e-06	1.21e-06	1.43e-06
